Experimental data from paper PMC12363265, “Glucagon-like peptide-1 receptor agonists for treatment of diabetes and obesity: advantage of oral delivery” (Frontiers in Drug Delivery, 2024).
Where a SMILES comes first, the peptide text is derived from it. [ ]: non-standard residue; d: D form. The star is where a group is joined. ξ: configuration not given here. ξGly(octyl) = CCCCCCCCC(N)C(=O)O; Hexenoyl(3E) = CC/C=C/CC(=O)*

What was measured:
blood glucose = experiment: Blood glucose response to exendin-4 in anaesthetised rats; format: in vivo, rat; conditions: exendin-4 co-formulated in Axcess with recombinant human insulin, via the intestine, n = 5
Description: Male Sprague-Dawley rats aged 8 weeks were checked for health status on delivery and assigned to cages (2 or 3 animals per cage) within the social groups at delivery and with animals of similar weight in the same cage. Animals were acclimated to the facility for 7 days before transfer to the study room for a further 4 days before the start of the experiment. The rats were randomly allotted to control and treatment groups. Animals were identified by cage tag and corresponding colour tail markings. At day −2 daily 24 h food intake was registered for each cage with 2-3 rats. At 14.00 h on day −1 (i.e., the day prior to the surgery) 50% of the usual food consumed in that interval was offered to the rats. […]
All data were entered into Excel spreadsheets and subsequently subjected to relevant statistical analyses (Graph Pad Prism software). […] Bioavailability=AUC peptide enteral administration/quantity of peptide administered enterally×quantity of peptide injected i.v./AUC of peptide after i.v. injection×100 Biopotency=biological activity after enteral administration/quantity of peptide administered enterally×quantity of peptide injected i.v./biological activity after i.v. injection×100

[1] = ref unpublished data; cited from earlier work
Description: In a separate experiment, intestinal delivery was studied of two GLP-1 analogues where modifications were made with the aim of increasing their circulating half-life by several hours relative to the native molecule. In one variant, G001, the molecule was identical to native GLP-1, except that N-terminal amino group was conjugated with salicylic acid. In the second, lipidated, analogue, G002, the N-terminal was conjugated with trans-3-hexenoic acid, and in position 14, leucine was replaced by octyl glycine. In addition, glutamate and alanine in positions 21 and 24 respectively were reversed, an ...

Molecule | blood glucose with co-formulated insulin (blood glucose) | half-life in rats [1]
recombinant human insulin: recombinant human insulin co-formulated with exendin-4 in the Axcess formulation | reduce blood glucose relative to exendin-4 administered alone | 
CC/C=C/CC(=O)N[C@@H](Cc1c[nH]cn1)C(=O)N[C@@H](C)C(=O)N[C@@H](CCC(=O)O)C(=O)NCC(=O)N[C@H](C(=O)N[C@@H](Cc1ccccc1)C(=O)N[C@H](C(=O)N[C@@H](CO)C(=O)N[C@@H](CC(=O)O)C(=O)N[C@H](C(=O)N[C@@H](CO)C(=O)N[C@@H](CO)C(=O)N[C@@H](Cc1ccc(O)cc1)C(=O)NC(CCCCCCCC)C(=O)N[C@@H](CCC(=O)O)C(=O)NCC(=O)N[C@@H](CCC(N)=O)C(=O)N[C@@H](C)C(=O)N[C@@H](C)C(=O)N[C@@H](CCCCN)C(=O)N[C@@H](C)C(=O)N[C@@H](Cc1ccccc1)C(=O)N[C@H](C(=O)N[C@@H](CCC(=O)O)C(=O)N[C@@H](Cc1c[nH]c2ccccc12)C(=O)N[C@@H](CC(C)C)C(=O)N[C@H](C(=O)N[C@@H](CCCCN)C(=O)N[C@@H](CC(N)=O)C(N)=O)C(C)C)[C@@H](C)CC)C(C)C)[C@@H](C)O)[C@@H](C)O (stereo partly drawn) [G002] ({Hexenoyl(3E)}-HAEGTFTSDVSSY[ξGly(octyl)]EGQAAKAFIEWLVKN-NH2) |  | ~12 h
Sal-HAEGTFTSDVSSYLEGQAAKEFIAWLVKGR-NH2 [G001, identical to native GLP-1, except that N-terminal amino group was conjugated with salicylic acid] |  | 0.417 h
